Here are results for one compound from patent US11365194B2, “Analgesic drug using PAC1 receptor antagonistic drug” (KAGOSHIMA UNIVERSITY, priority 2017, dated 2022).

Assay [1] has as its target T1, mouse PAC receptor-expressing CHO cell (PAC1/CHO cell) (Mus musculus, UniProt P70205).
T1 construct: expressed in transfected cells; host or cells: CHO cells
T1 sequence (P70205 21-496): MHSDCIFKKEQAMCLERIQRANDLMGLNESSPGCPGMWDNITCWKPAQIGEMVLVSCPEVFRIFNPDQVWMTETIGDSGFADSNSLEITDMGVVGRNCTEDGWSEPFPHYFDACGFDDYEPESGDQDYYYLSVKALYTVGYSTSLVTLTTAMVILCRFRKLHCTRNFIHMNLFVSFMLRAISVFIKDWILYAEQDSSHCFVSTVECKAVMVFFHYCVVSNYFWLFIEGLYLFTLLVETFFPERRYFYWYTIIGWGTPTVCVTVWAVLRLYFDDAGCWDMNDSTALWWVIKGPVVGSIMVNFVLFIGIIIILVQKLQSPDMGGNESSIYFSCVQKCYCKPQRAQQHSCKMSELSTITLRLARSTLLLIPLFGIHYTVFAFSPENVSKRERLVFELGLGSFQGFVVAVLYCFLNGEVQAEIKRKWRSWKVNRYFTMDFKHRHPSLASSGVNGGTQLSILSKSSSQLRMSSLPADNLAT
In words: CREB phosphorylation by PACAP stimulus, Western blot, PAC1/CHO cell. The class given is cell-based. How it is done:
The effect of each compound on the phosphorylation of CREB (cAMP-responsive element-binding protein) produced by a PACAP stimulus was examined by Western blot analysis using an anti-phosphorylated CREB (pCREB) antibody with a mouse PAC receptor-expressing CHO cell (PAC1/CHO cell) and a mouse VPAC1 receptor-expressing CHO cell (VPAC1/CHO cell).
Specifically, treatment with a compound (PA-8, PA-9, compounds 2j, 20 and 3d) at 10 μM to 10 nM or a solvent therefor (VEH: 0.1% DMSO-containing phosphate buffer solution) was performed for 30 minutes, 1 nM PACAP was then added, and protein was recovered within 30 minutes after a PACAP stimulus.

For assay [2], the system named is cold allodynia induced by oxaliplatin. In words: Onset of cold allodynia induced by oxaliplatin, drug given around oxaliplatin administration. The conditions noted are these: 10 mg/kg oral, 30 minutes before oxaliplatin or 3 administrations. It counts as in vivo, mouse. On the procedure:
Oxaliplatin was dissolved in 5% glucose-containing saline and intraperitoneally administered at a dose of 2 mg/kg. Drug administration (oral administration) was performed 30 minutes before oxaliplatin administration (FIG. 7A); or 3 times: 30 minutes before oxaliplatin administration, 2.5 hours after the administration, and 5.5 hours after the administration (FIG. 7B). Male ddY mice (6 to 12 weeks old) were used. The axis of ordinates is the duration of the behavior of licking and paw waving after the application of an acetone drop (10 μL) to the footpad of a hind paw.

The subject of assay [3] is mechanical allodynia induced by spinal nerve injury. In words: Spinal nerve ligation (SNL) model, repeated intraperitoneal administration, mechanical allodynia. The class given is in vivo, mouse. On the procedure: Male ddY mice (6 to 12 weeks old) were used, and the threshold to a mechanical stimulus was evaluated by the vonFrey test. Specifically, the 50% withdrawal reflex threshold (Threshold) was calculated in accordance with the method of Chaplan et al. (Chaplan et al., J. Neurosci. Meth. 53, 55-63, 1994). Each compound was dissolved in 99.7% DMSO, and then the resulting solution was diluted with an artificial cerebrospinal fluid for preparation (final concentration of DMSO was 0.2%).
Spinal nerve ligation (SNL) models in which the fourth lumbar cord spinal nerves of male ddY (6 to 12 weeks old) were ligated with silk thread were used. A solvent (VEH: 10% DMSO-containing saline). PA-8, the compound 2j or the compound 20 was intraperitoneally administered (30 mg/kg) 5 to 10 minutes before the ligation, and once a day for 7 days thereafter. The method of causing a mechanical stimulus is the same as that of Example 5, and data from the first day after the ligation (D1) are data 1 hour after the administration of VEH or the drugs.

As to `C=CCOc1ccc(C2CC(=O)Nc3nc(N)[nH]c(=O)c32)cc1OC` (centres unmarked) [PA-8, reference compound], the “suppression of CREB phosphorylation by PACAP (1 nM)” value in assay [1] (PAC1/CHO cell, compound 10 μM to 10 nM, 30 minutes before 1 nM PACAP) is listed as “suppressed CREB phosphorylation by PACAP (1 nM)”. The “receptor selectivity (PAC1 versus VPAC1)” value in assay [1] (concluded from PAC1/CHO and VPAC1/CHO data) is recorded as “PAC1 receptor selective antagonistic drug”. Moreover, in assay [2], the “suppression of the onset of cold allodynia by oxaliplatin” value was “suppressed the onset of cold allodynia by oxaliplatin significantly”. Besides, the “suppression of the onset of mechanical allodynia” value in assay [3] (30 mg/kg i.p. before ligation and once a day for 7 days) is given as “suppressed the onset of mechanical allodynia significantly”. In assay [3] (30 mg/kg i.p., discontinued on the seventh day, versus VEH group), the “mechanical threshold after discontinuation of administration” value is reported as “maintained the mechanical threshold highly significantly for at least 7 days thereafter”.
